Results reported in the NIST ThermoML archive (doi:10.1021/acs.jced.6b00733).
± gives the expanded uncertainty stated by the source. Blank lines part the entries; values can stand above or below the compound they belong to.

Assays:
[1] = Liquid, Ebulliometric method (Recirculating still)
[2] = refractive index (Na D-line) (dimensionless); conditions: 298.15 K; 101.3 kPa; Liquid; Standard Abbe refractometry

vapor or sublimation pressure ([1]; 404.05 K): 101.33 ± 1 kPa | refractive index [2]: 1.4042 ± 0.0004
SMILES: CC(C)CCO [3-methylbutan-1-ol]

vapor or sublimation pressure ([1]; 415.19 K): 101.33 ± 1 kPa | refractive index [2]: 1.3977 ± 0.0004
SMILES: CC(=O)OCCC(C)C [3-methylbutyl ethanoate]

More lines, now with the values behind:

SMILES: c1ccccc1 [benzene]
vapor or sublimation pressure ([1]; 353.27 K): 101.33 ± 1 kPa

SMILES: Cc1ccccc1 [toluene]
vapor or sublimation pressure ([1]; 383.82 K): 101.33 ± 1 kPa

SMILES: C[S+](C)[O-] [dimethyl sulfoxide]
vapor or sublimation pressure ([1]; 463.93 K): 101.33 ± 1 kPa | refractive index [2]: 1.4779 ± 0.0004
